According to patent US20100240589A1, “DIASTEREOMERIC PEPTIDES USEFUL AS INHIBITORS OF MEMBRANE PROTEIN ASSEMBLY” (YEDA RESEARCH AND DEVELOPMENT CO., LTD. AT THE WEIZMANN …, priority 2003, published 2010):

Tested on: CP362 bacteria overexpressing the Tar receptor (pNT201)
Experiment: Swarm assay on TB semi-solid agar (chemotaxis)
Assay type: cell-based, Escherichia coli
Details: 20 μM peptide, 35° C.

KKKMVLGVFALLFLIGGSLKK [F/G mutant peptide]
expansion speed / chemotactic behavior of the bacteria: no significant effect

KKKMVLGVFALLQLISGSLKK [Tar-1 all-L, peptide corresponding to the transmembrane domain 1 of Tar, reference compound]
expansion speed / chemotactic behavior of the bacteria: significantly reduced
